The compounds below were run against T1, human GlyT1c transporter (Homo sapiens, UniProt P48067) (assay: Radioligand binding assays using recombinant CHO cell membranes expressing human GlyT1). Conditions: Ki, radioligand binding to human GlyT1c transporter-expressing CHO cell membranes.
T1 sequence (P48067 1-706): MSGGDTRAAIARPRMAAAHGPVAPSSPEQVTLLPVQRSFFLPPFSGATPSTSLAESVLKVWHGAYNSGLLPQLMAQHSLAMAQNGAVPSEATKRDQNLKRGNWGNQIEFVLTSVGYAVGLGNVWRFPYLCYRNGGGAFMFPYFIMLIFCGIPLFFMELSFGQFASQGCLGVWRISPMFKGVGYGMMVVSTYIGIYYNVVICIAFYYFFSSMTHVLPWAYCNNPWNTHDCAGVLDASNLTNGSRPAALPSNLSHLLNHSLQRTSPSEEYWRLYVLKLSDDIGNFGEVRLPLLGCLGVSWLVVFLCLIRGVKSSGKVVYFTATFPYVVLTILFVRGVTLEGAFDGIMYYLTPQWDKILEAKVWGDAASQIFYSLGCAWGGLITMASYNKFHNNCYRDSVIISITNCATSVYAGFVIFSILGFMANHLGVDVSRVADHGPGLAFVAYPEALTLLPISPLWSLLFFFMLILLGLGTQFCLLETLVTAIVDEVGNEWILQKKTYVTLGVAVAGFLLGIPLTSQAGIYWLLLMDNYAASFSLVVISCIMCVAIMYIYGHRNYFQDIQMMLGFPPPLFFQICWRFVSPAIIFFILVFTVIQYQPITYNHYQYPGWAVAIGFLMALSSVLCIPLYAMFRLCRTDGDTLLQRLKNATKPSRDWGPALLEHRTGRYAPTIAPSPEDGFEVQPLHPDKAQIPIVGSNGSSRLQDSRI
For `Cn1cnc(S(=O)(=O)N2C[C@H](Nc3cccc(OC(F)(F)F)c3)[C@@H](C3OCCO3)C2)c1` [Example 902, (3R,4S)-4-(1,3-dioxolan-2-yl)-1-[(1-methyl-1H-imidazol-4-yl)sulfonyl]-N-[3-(trifluoromethoxy)phenyl]pyrrolidin-3-amine], the Ki was no more than 1000 nM.
`Cn1cc(S(=O)(=O)N2CC3c4ccccc4CC3(Nc3cc(C(F)(F)F)ncn3)C2)nn1` (centres unmarked) [Example 891, 2-[(1-methyl-1H-1,2,3-triazol-4-yl)sulfonyl]-N-[6-(trifluoromethyl)pyrimidin-4-yl]-2,3,3a,8-tetrahydroindeno[1,2-c]pyrrol-8a(1H)-amine] showed a Ki of no more than 100 nM.
Work on `CCS(=O)(=O)N1C[C@@H](NC(=O)c2ccc(C(F)(F)F)cc2)[C@H](c2ccccc2)C1` (relative stereo) [Example 122, N-[trans-1-(ethylsulfonyl)-4-phenylpyrrolidin-3-yl]-4-(trifluoromethyl)benzamide] yielded a Ki of no more than 10000 nM.
`Cn1cnc(S(=O)(=O)N2CC3CCCN(C(=O)c4cccc(C(F)(F)F)c4Cl)C3C2)c1` (centres unmarked) [Example 874, [2-chloro-3-(trifluoromethyl)phenyl]{6-[(1-methyl-1H-imidazol-4-yl)sulfonyl]octahydro-1H-pyrrolo[3,4-b]pyridin-1-yl}methanone] was tested, and the Ki was no more than 10000 nM.
With `Cn1cnc(S(=O)(=O)N2CC3CCCCC3(NC(=O)c3cccc(C(F)(F)F)c3Cl)C2)c1` (centres unmarked) [Example 870, 2-chloro-N-{2-[(1-methyl-1H-imidazol-4-yl)sulfonyl]octahydro-3aH-isoindol-3a-yl}-3-(trifluoromethyl)benzamide] the Ki was no more than 100 nM.
`Cn1cnc(S(=O)(=O)N2C[C@H](Nc3cc(OCC(F)(F)F)ccn3)[C@@H](c3ccccc3)C2)c1` [Example 809, N-{(3R,4S)-1-[(1-methyl-1H-imidazol-4-yl)sulfonyl]-4-phenylpyrrolidin-3-yl}-4-(2,2,2-trifluoroethoxy)pyridin-2-amine] was tested, and the Ki was no more than 10 nM.
With `Cn1cnc(S(=O)(=O)N2CC3CCCCC3(NCc3ccc(C(F)(F)F)cc3)C2)c1` (centres unmarked) [Example 884, 2-[(1-methyl-1H-imidazol-4-yl)sulfonyl]-N-[4-(trifluoromethyl)benzyl]octahydro-3aH-isoindol-3a-amine] the Ki was no more than 100 nM.
With `Cn1cnc(S(=O)(=O)N2CC(Nc3cccc(OC(F)(F)F)c3)c3ccccc32)c1` (centres unmarked) [Example 887, 1-[(1-methyl-1H-imidazol-4-yl)sulfonyl]-N-[3-(trifluoromethoxy)phenyl]-2,3-dihydro-1H-indol-3-amine] the Ki was no more than 100 nM.
In the case of `Cn1cnc(S(=O)(=O)N2C[C@H](c3ccc(F)cc3)[C@@H](N3C(=O)Cc4ccccc43)C2)c1` [Example 883, 1-{(3R,4S)-4-(4-fluorophenyl)-1-[(1-methyl-1H-imidazol-4-yl)sulfonyl]pyrrolidin-3-yl}-1,3-dihydro-2H-indol-2-one], the Ki is reported as no more than 10000 nM.
For `Cn1cnc(S(=O)(=O)N2CC3c4ccccc4CCC3(NCc3ccc(F)cc3)C2)c1` (centres unmarked) [Example 889, N-(4-fluorobenzyl)-2-[(1-methyl-1H-imidazol-4-yl)sulfonyl]-1,2,3,4,5,9b-hexahydro-3aH-benzo[e]isoindol-3a-amine], the Ki was no more than 100 nM.
Compound `Cn1cnc(S(=O)(=O)N2C[C@H](Nc3cccc(OC(F)(F)F)c3)[C@@H](C3OCC(C)(C)CO3)C2)c1` [Example 900, (3R,4S)-4-(5,5-dimethyl-1,3-dioxan-2-yl)-1-[(1-methyl-1H-imidazol-4-yl)sulfonyl]-N-[3-(trifluoromethoxy)phenyl]pyrrolidin-3-amine] has a Ki of no more than 1000 nM.
In the case of `Cn1cnc(S(=O)(=O)N2C[C@H](NCc3cnc(Br)s3)[C@@H](c3ccccc3)C2)c1` [Example 438, (3R,4S)-N-[(2-bromo-1,3-thiazol-5-yl)methyl]-1-[(1-methyl-1H-imidazol-4-yl)sulfonyl]-4-phenylpyrrolidin-3-amine], the Ki is reported as no more than 1000 nM.
`Cn1cnc(S(=O)(=O)N2C[C@H](Nc3ccc(F)c(C(F)(F)F)c3)[C@@H](C3OCCCO3)C2)c1` [Example 912, (3R,4S)-4-(1,3-dioxan-2-yl)-N-[4-fluoro-3-(trifluoromethyl)phenyl]-1-[(1-methyl-1H-imidazol-4-yl)sulfonyl]pyrrolidin-3-amine] was tested, and the Ki was no more than 10 nM.
Work on `C[C@H]1C[C@H](C)OC([C@H]2CN(S(=O)(=O)c3cn(C)cn3)C[C@@H]2Nc2cccc(OC(F)(F)F)c2)O1` (stereo partly drawn) [Example 922, (3R,4S)-4-[(4S,6S)-4,6-dimethyl-1,3-dioxan-2-yl]-1-[(1-methyl-1H-imidazol-4-yl)sulfonyl]-N-[3-(trifluoromethoxy)phenyl]pyrrolidin-3-amine] yielded a Ki of no more than 10 nM.
Compound `Cn1cc(S(=O)(=O)N2C[C@H](Nc3cccc(OC(F)(F)F)c3)[C@@H](C3OCCCO3)C2)nn1` [Example 896, (3R,4S)-4-(1,3-dioxan-2-yl)-1-[(1-methyl-1H-1,2,3-triazol-4-yl)sulfonyl]-N-[3-(trifluoromethoxy)phenyl]pyrrolidin-3-amine] has a Ki of no more than 10 nM.
Work on `Cn1cnc(S(=O)(=O)N2C[C@@H]3c4ccccc4C[C@@]3(NCc3ccc(C(F)(F)F)cc3Cl)C2)c1` (relative stereo) [Example 885, trans-N-[2-chloro-4-(trifluoromethyl)benzyl]-2-[(1-methyl-1H-imidazol-4-yl)sulfonyl]-2,3,3a,8-tetrahydroindeno[1,2-c]pyrrol-8a(1H)-amine] yielded a Ki of no more than 100 nM.
Work on `Cn1cnc(S(=O)(=O)N2C[C@H](Nc3cc(C(F)(F)F)c(Cl)cn3)[C@@H](C3OCCCO3)C2)c1` [Example 911, 5-chloro-N-{(3R,4S)-4-(1,3-dioxan-2-yl)-1-[(1-methyl-1H-imidazol-4-yl)sulfonyl]pyrrolidin-3-yl}-4-(trifluoromethyl)pyridin-2-amine] yielded a Ki of no more than 10 nM.
In the case of `Cn1cnc(S(=O)(=O)N2C[C@H](NCCCCC3OCC(C)(C)CO3)[C@@H](c3ccc(F)cc3)C2)c1` [Example 684], the Ki is reported as no more than 1000 nM.
`CN1CCCCC1C1CN(S(=O)(=O)c2cn(C)cn2)CC1Nc1cccc(OCC(F)(F)F)c1` (centres unmarked) [Example 894, 1-[(1-methyl-1H-imidazol-4-yl)sulfonyl]-4-(1-methylpiperidin-2-yl)-N-[3-(2,2,2-trifluoroethoxy)phenyl]pyrrolidin-3-amine] showed a Ki of no more than 10 nM.
`Cn1cnc(S(=O)(=O)N2C[C@H](NC(c3ccccc3)C(F)(F)F)[C@@H](c3ccc(F)cc3)C2)c1` (stereo partly drawn) [Example 868, (3R,4S)-4-(4-fluorophenyl)-1-[(1-methyl-1H-imidazol-4-yl)sulfonyl]-N-(2,2,2-trifluoro-1-phenylethyl)pyrrolidin-3-amine] showed a Ki of no more than 10000 nM.
With `Cn1cnc(S(=O)(=O)N2[C@@H]3CC[C@H]2[C@H](c2ccc(F)cc2)[C@H]3Nc2ccc(F)c(C(F)(F)F)c2)c1` [Example 877, (1R,2R,3R,4S)-3-(4-fluorophenyl)-N-[4-fluoro-3-(trifluoromethyl)phenyl]-7-[(1-methyl-1H-imidazol-4-yl)sulfonyl]-7-azabicyclo[2.2.1]heptan-2-amine] the Ki was no more than 10000 nM.
Work on `CCCCNC(=O)O[C@@H]1CN(S(=O)(=O)c2cn(C)cn2)C[C@H]1c1ccc(F)cc1` [Example 699, (3S,4R)-4-(4-fluorophenyl)-1-[(1-methyl-1H-imidazol-4-yl)sulfonyl]pyrrolidin-3-yl butylcarbamate] yielded a Ki of no more than 1000 nM.

Same assay, conditions: radioligand binding to human GlyT1c transporter-expressing CHO cell membranes
For “4-({(3R,4S)-1-[(1-methyl-1H-imidazol-4-yl)sulfonyl]-4-phenylpyrrolidin-3-yl}amino)-2,3-dihydro-1H-isoindol-1-one [Example 421]”, the Ki was no more than 10000 nM.

From patent US9650334B2 (AbbVie Deutschland GmbH & Co. KG, priority 2013, dated 2017)
